Values quoted from earlier work, collected in patent US20210244720A1, “Therapeutic Tyrosine Kinase Inhibitors for Relapsing Multiple Sclerosis (RMS)” (Genzyme Corporation, priority 2020, published 2021).

System: RMS patients
Settings: from Week 12; cited from earlier work

## C=CC(=O)N1CCC(CNc2ncnc(N)c2-c2ccc(Oc3ccccc3)cc2)CC1 [evobrutinib]
  reduction of new Gd-enhancing T1 lesions: meaningful reduction
